Values of other authors as cited in patent publication US20210292807A1, “METHOD FOR TESTING ANTIMICROBIAL SUSCEPTIBILITY” (priority 2017, published 2021).
Where two headings read alike, the source gives them in different places.

Tested on: Klebsiella isolates
Settings: cited from earlier work

C[C@@H](O)[C@H]1C(=O)N2C(C(=O)O)=C(S[C@@H]3CN[C@H](C(=O)N(C)C)C3)[C@H](C)[C@H]12 [meropenem]
MIC, high-level resistance end of the collection's susceptibility phenotypes (48 Klebsiella isolates): > 256 µg/mL | MIC, highly-susceptible end of the collection's susceptibility phenotypes (48 Klebsiella isolates): < 1.006 µg/mL | Referring Lab's MIC (isolate 194, Sweden, VIM): ≥32 mg/L | Referring Lab's MIC (isolate 374, Sweden, VIM): >32 mg/L | Referring Lab's MIC (isolate 3354, Australia): ≤≤0.25 mg/L | Referring Lab's MIC (isolate 10924, Sweden, KPC): 4 mg/L | Referring Lab's MIC (isolate 18397, Australia): ≤≤0.25 mg/L | Referring Lab's MIC (isolate 43288, Australia): ≤≤0.25 mg/L | Referring Lab's MIC (isolate 43292, Australia): ≤≤0.25 mg/L | Referring Lab's MIC (isolate 43358, Australia): ≤≤0.25 mg/L | Referring Lab's MIC (isolate 43854, Australia): ≤≤0.25 mg/L | Referring Lab's MIC (isolate 44271, Australia): ≤≤0.25 mg/L | Referring Lab's MIC (isolate 51575, Sweden, ESBL): 0.064 mg/L | Referring Lab's MIC (isolate 70708, Sweden, KPC): 16 mg/L | Referring Lab's MIC (isolate 71076, Sweden, KPC): ≥32 mg/L | Referring Lab's MIC (isolate 200822, Sweden, KPC): 8 mg/L | Referring Lab's MIC (isolate 270902, England): 0.125 mg/L | Referring Lab's MIC (isolate 500638, Sweden, pAmpC): ≤0.25 mg/L | Referring Lab's MIC (isolate 515870, Sweden, ESBL): 0.125 mg/L | Referring Lab's MIC (isolate 2440606, England): ≤0.06 mg/L | Referring Lab's MIC (isolate 2880622, England): ≤0.06 mg/L | Referring Lab's MIC (isolate 2880654, England, KPC): 4 mg/L | Referring Lab's MIC (isolate 2890369, England): 1 mg/L | Referring Lab's MIC (isolate 2980639, England): 1 mg/L | Referring Lab's MIC (isolate 3000770, England, NDM-1): >32 mg/L | Referring Lab's MIC (isolate 3040820, England, pAmpC): ≤0.06 mg/L | Referring Lab's MIC (isolate 3080800, England, KPC): >32 mg/L | Referring Lab's MIC (isolate ATCC 700603, USA): ≤≤0.25 mg/L | Referring Lab's MIC (isolate ATCC BAA 1705, USA, KPC): 8 mg/L | Referring Lab's MIC (isolate ATCC BAA 1706, USA): ≤≤0.25 mg/L | Referring Lab's MIC (isolate K1, Australia, OXA-181): 64 mg/L | Referring Lab's MIC (isolate K2, Australia, OXA-181): 64 mg/L | Referring Lab's MIC (isolate K8, Australia, NDM-1): >256 mg/L | Referring Lab's MIC (isolate K14, Australia, KPC): 256 mg/L | Referring Lab's MIC (isolate K16, Australia, IMP - 4): 2 mg/L | Referring Lab's MIC (isolate K23, Australia, IMP - 4): 0.5 mg/L | Referring Lab's MIC (isolate KS1, Sri Lanka, OXA-181): 1 mg/L | Referring Lab's MIC (isolate KS2, Sri Lanka, OXA-181): ≥32 mg/L | Referring Lab's MIC (isolate KS17, Sri Lanka, OXA-181): ≥32 mg/L | Referring Lab's MIC (isolate KS23, Sri Lanka, OXA-181): ≥32 mg/L | Referring Lab's MIC (isolate N17, Sweden, NDM-1): ≥32 mg/L
